In the supplement of paper PMC7108870:

Columns and labels:
[1] = tested on: HEK293sieSTAT3(Y640F); test: drug sensitivity score (DSS), viability CellTiter-Glo (DSS (dimensionless)); higher = more growth inhibition; extreme values may be limits of the assay; conditions: 72 h; STAT3 variant: Y640F (constitutively active)
Outline: (§1)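 In 384-well plates with acoustically pre-plated compounds (5 concentrations, 10-fold dilutions), 20 μl of HEK293 cells at 100,000 cells/ml were added; the cells overexpressed wild-type or mutant STAT3 and carried a STAT3-dependent luciferase reporter. Incubation lasted 72 hours at 37°C and 5% CO2 before sequential CellTox Green (485/520 nm) and CellTiter-Glo reads on a PHERAstar FS. After normalisation to negative and positive control wells, Breeze was used to derive a drug sensitivity score from the dose-response curve area.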

[2] = tested on: HEK293sieSTAT3(wt); test: as above; conditions: 72 h; STAT3 variant: wild type
Outline: as §1

[3] = tested on: HEK293sieSTAT3(Y640F); test: drug sensitivity score (DSS), cytotoxicity CellTox Green (DSS (dimensionless)); higher = more cytotoxic; extreme values may be limits of the assay; conditions: 72 h; STAT3 variant: Y640F (constitutively active)
Outline: as §1

[4] = tested on: HEK293sieSTAT3(wt); test: as above; conditions: 72 h; STAT3 variant: wild type
Outline: as §1

Structure (SMILES)	drug sensitivity score [1]	drug sensitivity score [2]	drug sensitivity score [3]	drug sensitivity score [4]
C[C@]12CC[C@@H]3c4ccc(O)cc4C[C@@H](CCCCCCCCC[S+]([O-])CCCC(F)(F)C(F)(F)F)[C@H]3[C@@H]1CC[C@@H]2O (stereo partly specified) [Fulvestrant] (top concentration tested 1000 nM)	1.69	1.8	0	0.46
O=C(NOCCO)c1ccc2cncn2c1Nc1ccc(I)cc1F [GDC-0623] (top concentration tested 2500 nM)	0	0	0	0
Cn1nccc1Nc1nccc(-c2ccn([C@H](CO)c3ccc(Cl)c(F)c3)c(=O)c2)n1 [GDC-0994] (top concentration tested 10000 nM)	8.52	6.43	0	0
CNc1nc(Nc2cn(C(C)(C)C#N)nc2C)ncc1C(F)(F)F [GNE-0877] (top concentration tested 1000 nM)	3.78	0.56	0	0
CCNc1nc(Nc2cc(F)c(C(=O)N3CCOCC3)cc2OC)ncc1C(F)(F)F [GNE-7915] (top concentration tested 1000 nM)	4.87	2.71	0	0
CCCc1cc(C)[nH]c(=O)c1CNC(=O)c1cc(-c2ccnc(N3CCN(C)CC3)c2)cc2c1cnn2C(C)C [GSK343] (top concentration tested 10000 nM)	6.55	7.6	5.89	6.89
CCCOc1ccn2c(C(C)=O)cc(-c3ccccc3S(C)(=O)=O)c2c1 [GSK2801] (top concentration tested 10000 nM)	0	0	0	0
CCOC(=O)CCNc1cc(N2CCc3ccccc3CC2)nc(-c2ccccn2)n1 [GSK-J4] (top concentration tested 100000 nM)	18.8	19.4	10.8	10.9
C[C@@H]1C=C2C(=O)O[C@@H]3CC[C@H](C1)[C@]23O [Galiellalactone] (top concentration tested 25000 nM)	4.57	4.61	0.48	3.45
Cc1cccc(-c2nn3c(c2-c2ccnc4ccc(C(N)=O)cc24)CCC3)n1 [Galunisertib] (top concentration tested 1000 nM)	0	0	1.47	0
Cc1cc(Nc2cc(CN3CCOCC3)c3nc(C)c(Cc4ccc(Cl)cc4F)n3n2)n[nH]1 [Gandotinib] (top concentration tested 10000 nM)	5.34	8.78	2.66	6.79
CC(C)c1cc(-c2n[nH]c(=O)n2-c2ccc3c(ccn3C)c2)c(O)cc1O [Ganetespib] (top concentration tested 1000 nM)	20.6	27.4	6.77	23.1
CN(C)C1CCN(C(=O)c2ccc(NC(=O)Nc3ccc(-c4nc(N5CCOCC5)nc(N5CCOCC5)n4)cc3)cc2)CC1 [Gedatolisib] (top concentration tested 1000 nM)	12.9	9.54	0	0.82
COc1cc2ncnc(Nc3ccc(F)c(Cl)c3)c2cc1OCCCN1CCOCC1 [Gefitinib] (top concentration tested 10000 nM)	1.88	3.96	0	1.5
Nc1ccn([C@@H]2O[C@H](CO)[C@@H](O)C2(F)F)c(=O)n1 [Gemcitabine] (top concentration tested 1000 nM)	14.6	19.5	2.77	4.58
CCN(CC)Cc1ccc2cc(COC(=O)Nc3ccc(C(=O)NO)cc3)ccc2c1 [Givinostat] (top concentration tested 1000 nM)	10.8	11.6	4.23	6.08
CN1CC[C@@H](NC(=O)Nc2ccc(C#N)cc2)C[C@@H]1c1nc2ccccc2[nH]1 [Glasdegib] (top concentration tested 1000 nM)	3.01	0	0	0
CN1CCN(C2CCN(C(=O)Nc3cc(Oc4ccc(NC(=O)C5(C(=O)Nc6ccc(F)cc6)CC5)c(F)c4)ccn3)CC2)CC1 [Golvatinib] (top concentration tested 2500 nM)	2.77	1.49	0	0.24
CC(C)C[C@H](NC(=O)[C@@H](COC(C)(C)C)NC(=O)[C@H](Cc1ccc(O)cc1)NC(=O)[C@H](CO)NC(=O)[C@H](Cc1c[nH]c2ccccc12)NC(=O)[C@H](Cc1cnc[nH]1)NC(=O)[C@@H]1CCC(=O)N1)C(=O)N[C@@H](CCCNC(=N)N)C(=O)N1CCC[C@H]1C(=O)NNC(N)=O [Goserelin] (top concentration tested 10000 nM)	2.1	1.57	0	0
O=S(=O)(c1cccc2c(O)nccc12)N1CCCNCC1 [Hydroxyfasudil] (top concentration tested 37500 nM)	0.45	5.7	0	0
NC(=O)NO [Hydroxyurea] (top concentration tested 100000 nM)	4.19	1.75	0	0
COc1cc2c(cc1-c1c(C)noc1C)ncc1[nH]c(=O)n([C@H](C)c3ccccn3)c12 [I-BET151] (top concentration tested 10000 nM)	8.85	5.57	2.48	6.67

Structure (SMILES)	drug sensitivity score [1]	drug sensitivity score [2]	drug sensitivity score [3]	drug sensitivity score [4]
O=C(O)c1ccc(O)c2ncccc12 [IOX-1] (top concentration tested 100000 nM)	1.18	2.26	0	0
O=C(O)CNC(=O)c1c(O)c2ccccc2n(Cc2ccccc2)c1=O [IOX-2] (top concentration tested 50000 nM)	0	2.91	0	0
C=CC(=O)N1CCC[C@@H](n2nc(-c3ccc(Oc4ccccc4)cc3)c3c(N)ncnc32)C1 [Ibrutinib] (top concentration tested 1000 nM)	0.59	2.79	0.94	3.43
C#Cc1cccc(Nc2ncnc3cc4c(cc23)OCCOCCOCCO4)c1 [Icotinib] (top concentration tested 10000 nM)	0.77	1.11	0	0.13
CC(=O)[C@]1(O)Cc2c(O)c3c(c(O)c2[C@@H](O[C@H]2C[C@H](N)[C@H](O)[C@H](C)O2)C1)C(=O)c1ccccc1C3=O [Idarubicin] (top concentration tested 1000 nM)	27.1	26.9	7.05	10.7
COc1cc(C(=O)O)ccc1NC(=O)[C@@H]1N[C@@H](CC(C)(C)C)[C@](C#N)(c2ccc(Cl)cc2F)[C@H]1c1cccc(Cl)c1F [Idasanutlin] (top concentration tested 10000 nM)	4.92	3.61	0.11	0
CC[C@H](Nc1ncnc2[nH]cnc12)c1nc2cccc(F)c2c(=O)n1-c1ccccc1 [Idelalisib] (top concentration tested 10000 nM)	1.95	2.04	0	0.23
O=P1(NCCCl)OCCCN1CCCl (stereo unspecified) [Ifosfamide] (top concentration tested 10000 nM)	0	0	0	0
Cc1ccc(NC(=O)c2ccc(CN3CCN(C)CC3)cc2)cc1Nc1nccc(-c2cccnc2)n1 [Imatinib] (top concentration tested 10000 nM)	4.88	7.13	0.42	5.22
CC(C)Cn1cnc2c(N)nc3ccccc3c21 [Imiquimod] (top concentration tested 2500 nM)	4.36	2.55	0	0
O=C(Nc1ccncc1)C(=O)c1cn(Cc2ccc(Cl)cc2)c2ccccc12 [Indibulin] (top concentration tested 10000 nM)	10.7	16	1.19	5.57
NC(=O)c1ccc(I)c([N+](=O)[O-])c1 [Iniparib] (top concentration tested 10000 nM)	0	0	0	0
CC(C)NC[C@@H](C(=O)N1CCN(c2ncnc3c2[C@H](C)C[C@H]3O)CC1)c1ccc(Cl)cc1 [Ipatasertib] (top concentration tested 10000 nM)	14.6	16.7	0	0.07
CCc1c2c(nc3ccc(OC(=O)N4CCC(N5CCCCC5)CC4)cc13)-c1cc3c(c(=O)n1C2)COC(=O)[C@]3(O)CC [Irinotecan] (top concentration tested 10000 nM)	12.2	14.5	2.17	6.44
CCC(C)n1ncn(-c2ccc(N3CCN(c4ccc(OCC5COC(Cn6cncn6)(c6ccc(Cl)cc6Cl)O5)cc4)CC3)cc2)c1=O (stereo unspecified) [Itraconazole] (top concentration tested 5000 nM)	6.28	5.54	4.55	7.01
C/C(=C\c1csc(C)n1)[C@@H]1C[C@@H]2O[C@]2(C)CCC[C@H](C)[C@H](O)[C@@H](C)C(=O)C(C)(C)[C@@H](O)CC(=O)N1 [Ixabepilone] (top concentration tested 1000 nM)	6.8	8.23	0.83	3.56
CCCNC(=O)Nc1ccc(Oc2ncnc3cc(OC)c(OC)cc23)cc1Cl [KRN-633] (top concentration tested 2500 nM)	0.57	0.2	0	0.01
O=C(c1ccc(/C=C/c2n[nH]c3ccccc23)cc1)N1CCNCC1 [KW-2449] (top concentration tested 2500 nM)	1.97	0.3	0	0.89
O=C(Cc1ccc(-c2ccc(OCCN3CCOCC3)cc2)cn1)NCc1ccccc1 [KX2-391] (top concentration tested 10000 nM)	19.9	23.2	4.02	19.6
CN[C@@H](C)C(=O)N[C@H](C(=O)N1CCC[C@H]1c1nc(C(=O)c2ccc(F)cc2)cs1)C1CCCCC1 [LCL161] (top concentration tested 25000 nM)	13.7	24.6	26.6	45
CS(=O)(=O)CCNCc1ccc(-c2ccc3ncnc(Nc4ccc(OCc5cccc(F)c5)c(Cl)c4)c3c2)o1 [Lapatinib] (top concentration tested 1000 nM)	0	0	0	2.09
Oc1ccc2c(c1)CC[C@H](c1ccccc1)[C@@H]2c1ccc(OCCN2CCCC2)cc1 [Lasofoxifene] (top concentration tested 1000 nM)	2.47	3.21	0	0
